Experimental data from patent US20250326714A1, “PURE FORMS OF CRYSTALLINE ATICAPRANT” (Janssen Pharmaceuticals, Inc., priority 2022, published 2025).

Key:
[1] = Solid-state characterization of Form III (GVS, TGA); format: physicochemical
[2] = ICH M7 class of impurity (DNA reactive / mutagenic impurities)
[3] = Body weight by treatment group, Example 5 study; format: in vivo, human
Source text: Treatment with the chemically and/or enantiomerically pure aticaprant described herein, e.g., chemically and/or enantiomerically pure crystalline Form III of aticaprant, or compositions containing the same as described herein has several advantages over the treatments in the art. […] As used herein, the term “weight gain” refers to an increase in the weight of patient, relative to the weight of the patient before taking the chemically and/or enantiomerically pure aticaprant described herein, e.g., chemically and/or enantiomerically pure crystalline Form III of aticaprant, or compositions containing the same or the weight of the patient that is assessed at the time of the initial administration of the chemically and/or enantiomerically pure aticaprant described herein, e.g., chemically and/or enantiomerically pure crystalline Form III of aticaprant, or compositions containing the same. In certain embodiments, the patient may actually see a decrease in overall weight, relative to the weight of the patient before taking the chemically and/or enantiomerically pure aticaprant described herein, e.g., chemically and/or enantiomerically pure crystalline Form III of aticaprant, or compositions containing the same.
At the lead-in baseline timepoint, the mean weight for subjects in the placebo group was 76.17 kg compared to 78.66 in the aticaprant group. After 6 weeks in the double-blind treatment phase, the mean weight in the placebo group was 75.75 kg compared to 78.57 kg in the aticaprant group. […] This is unexpected because other adjunctive treatments for MDD result in a mean weight increase. See, Thase M, et al. J Clin Psych. 2015: 76 (9), 1224-1231; Thase, J Clin Psych. 2015, 76 (9): 1232-1240; El Khalili, Int J Neuropsychopharmacol. 2010, 13, 917-932; Marcus, J. Clin. Psychopharmacol. […] Nashville, Tenn, ACNP, 2008; Earley, American College of Neuropsychopharmacology, 2007, Annual Meeting Abstracts (Boca Raton, Fla, Dec. 9-13, 2007). Nashville, TN, ACNP, 2007). See, Table 48.

Cc1cc(C)cc([C@@H]2CCCN2Cc2ccc(Oc3ccc(C(N)=O)cc3F)cc2)c1 [Form III]
TGA degradation onset [1]: Degradation onset ~250 °C | XRPD after GVS [1]: XRPD unchanged after GVS

Cc1cc(C)cc([C@@H]2CCCN2Cc2ccc(Oc3ccc(CN4CCC[C@H]4c4cc(C)cc(C)c4)cc3)cc2)c1 [Impurity 1]
Impurity Class (ICH M7 Guideline) [2]: Class 5

Cc1cc(C)cc(C2CCCN2Cc2ccc(Oc3ccc(C(N)=O)cc3F)cc2)c1 (stereo not drawn) [aticaprant, 3-fluoro-4-4-2-(3,5-dimethylphenyl) pyrrolidin-1-yl-methylphenoxybenzamide]
weight over the 6-week double blind treatment period ([3]; both groups): remained relatively stable | Mean weight, Absolute Change (Withdrawal − Lead-in) ([3]; n = 85): -0.09 kg | Mean weight, Lead-in Baseline, mean (SE) ([3]; n = 85): 78.66 (1.65) kg | Mean weight, Relative % Change ([3]; n = 85): −0.11% | Mean weight, Screening, mean (SE) ([3]; n = 85): 78.42 (1.65) kg | Mean weight, Withdrawal Baseline, mean (SE) ([3]; n = 85, after 6 weeks double-blind treatment): 78.57 (1.71) kg
